Results from patent publication US20060210479A1 (Dow Global Technologies Inc., priority 2004, published 2006).
Values joined by “and” are separate entries in the source; they are usually repeats but may differ in a detail not shown here. Identical values can stand only once. Like-named read-outs stand apart in the source and are kept apart here.

Columns and labels:
[1] = tested on: PZ-HPV-7 normal cell line; experiment: Chelate permeability: fluorescence of cytoplasm and membrane fractions; format: cell-based
[2] = tested on: HEK293 cells, normal (non-induced); experiment: Permeability of chelates to HEK293 cells, fluorescence of fractions; format: cell-based, human; details: HEK293 Normal; 1 mM chelate, 2 hours
In short: (§1)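 HEK293 cells were grown in EMEM with 10% heat-inactivated FBS at 37 °C, 5% CO2. Apoptosis was induced at 75% confluence with 20 μM etoposide (final) for 24 h, with 0.1% DMSO as vehicle control. Confluent cells exposed to chelate were rinsed with 10 mM HEPES, scraped, pelleted, and fraction fluorescence measured.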

[3] = tested on: etoposide-induced (apoptotic) HEK293 cells; experiment: Permeability of chelates to apoptotic cells, fluorescence of fractions; format: cell-based, human
In short: as §1

C-33A cervical cells = details: read-out: Chelate Concentration Producing 50% Inhibition of Cancer Cell Growth, MTS, 96 hour continuous exposure
Experimental: (§2) To assess whether or not chelate treatment of cancer cells could produce a net modulation in cell growth, the overall growth inhibitory effect of chelates on various cancer cell lines was tested. The concentration of chelate necessary to produce 50% growth inhibition was measured, as determined by detection of the formazan product of cellular […] of 3-(4,5-dimethylthiazol-2-yl)-5-(3-carboxymethoxyphenyl)-2-(4-sulfophenyl)-2H-tetrazolium, inner salt (MTS).

[4] = tested on: CaCo-2 colorectal adenocarcinoma cells; details: read-out: Chelate Concentration Producing 50% Inhibition of Cancer Cell Growth, MTS, 96 hour continuous exposure
Experimental: as §2

[5] = tested on: Caki-1 renal cell carcinoma cells; details: read-out: Chelate Concentration Producing 50% Inhibition of Cancer Cell Growth, MTS, 96 hour continuous exposure
Experimental: as §2

[6] = tested on: DU-145 prostate adenocarcinoma cells
Experimental: as §2

[7] = tested on: HLaC head & neck squamous cell carcinoma cells; details: read-out: Chelate Concentration Producing 50% Inhibition of Cancer Cell Growth, MTS, 96 hour continuous exposure
Experimental: as §2

[8] = tested on: HT-29 colon adenocarcinoma cells; details: read-out: Chelate Concentration Producing 50% Inhibition of Cancer Cell Growth, MTS, 96 hour continuous exposure
Experimental: as §2

[9] = tested on: LnCaP prostate adenocarcinoma cells
Experimental: as §2

[10] = tested on: MDA-231 breast adenocarcinoma cells
Experimental: as §2

[11] = tested on: MDA-231-M breast adenocarcinoma cells, metastatic clone; details: read-out: Chelate Concentration Producing 50% Inhibition of Cancer Cell Growth, MTS, 96 hour continuous exposure
Experimental: as §2

[12] = tested on: NCM460 normal human colon epithelial cells; details: read-out: Chelate Concentration Producing 50% Inhibition of Cancer Cell Growth; NCM460 control line; MTS; 96 hour continuous exposure
Experimental: as §2

[13] = tested on: SK-MES lung non-small cell squamous carcinoma cells; details: read-out: Chelate Concentration Producing 50% Inhibition of Cancer Cell Growth, MTS, 96 hour continuous exposure
Experimental: as §2

[14] = tested on: cancer cells (LNCaP, Caco-2, T84); experiment: Chelate permeability and specificity, cancer cells versus normal cells (summary); format: cell-based, human; details: cancer cells
[15] = tested on: normal cheek pouch tissue; details: 2 mM solution topical, 10 minutes, readings Adjusted Volume CNT*mm2
SK-MES cells = details: for EuQCTME Cell Binding (fluorescence per well): 1 mM
NCM-460 cells = details: for EuQCTME Cell Binding (fluorescence per well): 1 mM
HLAC cells = details: for EuQCTME Cell Binding (fluorescence per well): 1 mM
[16] = tested on: excised human colorectal tissue; details: 2 mM/5% ethanol aerosol spray, rinsing, UV 320 nm
Experimental: Excised tissue was received from human patients undergoing radical resection of the colon as a result of invasive cancer. Sections of tissue were received within 30 minutes of resection and the chelate solution applied as an aerosol spray followed by sequential aqueous rinsing to remove unbound chelate. The resulting tissue was then visualized under UV irradiation (320 nm) to detect the presence of the chelate (red-shifted emission).

[17] = tested on: cancer cell lines (CaCo-2, Du-145, SK-MES, HLaC, C33-A); details: relative to control cells
[18] = PZ-HVP-7, 1 mM chelate, 2 h, Table 4

Experimental for human cancer cell lines: To assess whether or not chelate treatment of cancer cells could produce a net modulation in cell growth, the overall growth inhibitory effect of chelates on various cancer cell lines was tested. The concentration of chelate necessary to produce 50% growth inhibition was measured, as determined by detection of the formazan product of cellular degradation of 3-(4,5-dimethylthiazol-2-yl)-5-(3-carboxymethoxyphenyl)-2-(4-sulfophenyl)-2H-tetrazolium, inner salt (MTS).

Which “detectability in normal cells” value ([1]; PZ-HPV-7) does the source give for `CCOP(=O)([O-])CN1CCN(Cc2ccc3cc(C)ccc3n2)CCN(CP(=O)([O-])OCC)CCN(CP(=O)([O-])OCC)CC1.[Eu+3]` [Eu-QCTME, Eu(III) N-(6-methyl-2-quinolylmethyl)-N′,N″,N′″-tris(methylenephosphonic acid ethyl ester)-1,4,7,10-tetraazacyclododecane] here?
Its value is “significantly less detectable”.

And the “Fluorescence/mg Cytoplasm” value [1, 18]?
The value was 2247.

And the “Fluorescence/mg Membrane” value [1, 18]?
Its value is 2293.

What about the “Fluorescence/mg Membrane” value [2] of the same compound?
The value was 1799.

And the “permeability to apoptotic induced HEK293 cells” value [3]?
The value was “permeable”.

And the “Fluorescence/mg Membrane” value ([3]; HEK293 Apoptotic (etoposide 20 μM, 24 hours), 1 mM chelate, 2 hours)?
The value was 1697.

And the IC50 (C-33A cervical cells)?
The IC50 was 41 µM.

And the IC50 [4]?
Its IC50 is 134 µM.

What about the IC50 [5] of the same compound?
Its IC50 is 16 µM.

What about the “inhibitory activity, time course MTS” value ([6]; 500 μM, 24 hours) of the same compound?
Its value is “showed inhibitory activity”.

And the IC50 ([6]; read-out: Chelate Concentration Producing 50% Inhibition of Cancer Cell Growth, MTS, 96 hour continuous exposure)?
The IC50 was 54.4 µM.

What about the IC50 [7] of the same compound?
Its IC50 is 21.9 µM.

What about the IC50 [8] of the same compound?
The IC50 was 15.8 µM.

What about the growth inhibition ([9]; LNCAP, 500 μM, 24 hours exposure) of the same compound?
Its growth inhibition is “over 30%”.

And the IC50 ([9]; read-out: Chelate Concentration Producing 50% Inhibition of Cancer Cell Growth, LnCaP, MTS, 96 hour continuous exposure)?
Its IC50 is 46.4 µM.

And the “inhibitory activity, time course MTS” value ([10]; MDA-231, 500 μM, 24 hours)?
The value was “showed inhibitory activity”.

What about the growth inhibition ([10]; MDA-MB-231, 500 μM, 24 hours exposure) of the same compound?
Its growth inhibition is “over 30%”.

And the IC50 ([10]; read-out: Chelate Concentration Producing 50% Inhibition of Cancer Cell Growth, MDA-231, MTS, 96 hour continuous exposure)?
Its IC50 is 39.6 µM.

And the IC50 [11]?
The IC50 was 46.8 µM.

What about the IC50 [12] of the same compound?
The IC50 was 123 µM and 124 µM.

And the IC50 [13]?
The IC50 was 140 µM.

And the “permeability to cell membranes” value [14]?
Its value is “permeable to cancer cell membranes”.

And the “Fluorescence/mg Cytoplasm” value ([15]; Normal 1)?
The value was 1344.

And the “Fluorescence/mg Membrane” value ([15]; Normal 1)?
The value was 1348.

And the “Fluorescence/mg Cytoplasm” value ([15]; Normal 2)?
The value was 1369.

What about the “Fluorescence/mg Membrane” value ([15]; Normal 2) of the same compound?
Its value is 1374.

And the “EuQCTME Cell Binding (fluorescence per well)” value (SK-MES cells; 2 min)?
The value was 21,983.

And the “EuQCTME Cell Binding (fluorescence per well)” value (SK-MES cells; 5 min)?
The value was 11,756.

What about the “EuQCTME Cell Binding (fluorescence per well)” value (SK-MES cells; 15 min) of the same compound?
The value was 8,588.

What about the “EuQCTME Cell Binding (fluorescence per well)” value (SK-MES cells; 30 min) of the same compound?
The value was 7,237.

What about the “EuQCTME Cell Binding (fluorescence per well)” value (SK-MES cells; 45 min) of the same compound?
The value was 9,513.

What about the “EuQCTME Cell Binding (fluorescence per well)” value (SK-MES cells; 60 min) of the same compound?
Its value is 5,358.

What about the “EuQCTME Cell Binding (fluorescence per well)” value (SK-MES cells; 120 min) of the same compound?
The value was 8,159.

What about the “EuQCTME Cell Binding (fluorescence per well)” value (SK-MES cells; 180 min) of the same compound?
Its value is 5,682.

And the “EuQCTME Cell Binding (fluorescence per well)” value (SK-MES cells; 240 min)?
The value was 15,625.

What about the “Totals: Normalized total area under each curve (AUC)” value (“Totals: Normalized total area” below) (SK-MES cells; over 240 min) of the same compound?
Its value is 28.

And the “EuQCTME Cell Binding (fluorescence per well)” value (NCM-460 cells; 2 min)?
The value was 2,757.

What about the “EuQCTME Cell Binding (fluorescence per well)” value (NCM-460 cells; 5 min) of the same compound?
Its value is 3,325.

What about the “EuQCTME Cell Binding (fluorescence per well)” value (NCM-460 cells; 15 min) of the same compound?
Its value is 14,042.

What about the “EuQCTME Cell Binding (fluorescence per well)” value (NCM-460 cells; 30 min) of the same compound?
Its value is 18,535.

What about the “EuQCTME Cell Binding (fluorescence per well)” value (NCM-460 cells; 45 min) of the same compound?
The value was 18,737.

What about the “EuQCTME Cell Binding (fluorescence per well)” value (NCM-460 cells; 60 min) of the same compound?
Its value is 20,666.

And the “EuQCTME Cell Binding (fluorescence per well)” value (NCM-460 cells; 120 min)?
The value was 2,388.

What about the “EuQCTME Cell Binding (fluorescence per well)” value (NCM-460 cells; 180 min) of the same compound?
Its value is 1,598.

And the “EuQCTME Cell Binding (fluorescence per well)” value (NCM-460 cells; 240 min)?
Its value is 16,682.

And the “Totals: Normalized total area” value (NCM-460 cells; over 240 min)?
The value was 44.

What about the “EuQCTME Cell Binding (fluorescence per well)” value (HLAC cells; 2 min) of the same compound?
Its value is 15,807.

What about the “EuQCTME Cell Binding (fluorescence per well)” value (HLAC cells; 5 min) of the same compound?
The value was 20,493.

And the “EuQCTME Cell Binding (fluorescence per well)” value (HLAC cells; 15 min)?
Its value is 13,704.

What about the “EuQCTME Cell Binding (fluorescence per well)” value (HLAC cells; 30 min) of the same compound?
The value was 6,300.

What about the “EuQCTME Cell Binding (fluorescence per well)” value (HLAC cells; 45 min) of the same compound?
Its value is 10,068.

And the “EuQCTME Cell Binding (fluorescence per well)” value (HLAC cells; 60 min)?
The value was 3,206.

And the “EuQCTME Cell Binding (fluorescence per well)” value (HLAC cells; 120 min)?
Its value is 21,877.

What about the “EuQCTME Cell Binding (fluorescence per well)” value (HLAC cells; 180 min) of the same compound?
Its value is 6,510.

What about the “EuQCTME Cell Binding (fluorescence per well)” value (HLAC cells; 240 min) of the same compound?
Its value is 2,401.

And the “Totals: Normalized total area” value (HLAC cells; over 240 min)?
The value was 51.

And the “localization in adjacent normal tissue” value [16]?
Its value is “no detectable localization”.

What about the “localization in diseased tissue (adenocarcinoma and pre-malignant neoplasm)” value [16] of the same compound?
The value was “found to localize in diseased tissue”.

What about the “cancer cell lines significantly inhibited compared to control” value (human cancer cell lines) of the same compound?
Its value is 8 of 10 cancer cell lines were significantly inhibited.

What about the IC50 (human cancer cell lines; read-out: Half-maximum growth inhibition concentration, range over examined cancer cell lines, 96 hour continuous exposure) of the same compound?
The IC50 was 16 to 140 µM.

And the time course cytotoxicity (human cancer cell lines; up to 48 hours, most malignant cell lines)?
The time course cytotoxicity was “lack of measurable cytotoxicity”.

What about the “time of initial burst of cell-bound fluorescence” value [17] of the same compound?
Its value is no more than 5 min.
